Results taken from patent publication US8492560B2, “Quinazoline derivatives as angiogenesis inhibitors” (AstraZeneca AB, priority 1999, dated 2013).

Molecule COc1cc2c(Oc3ccc4[nH]c(C)cc4c3)ncnc2cc1OCC1CCN(C)C(=O)C1 (stereo not shown) [Example 268, 6-methoxy-4-(2-methylindol-5-yloxy)-7-(1-methyl-2-oxopiperidin-4-ylmethoxy)quinazoline] has a melting point of 250 to 251 °C. For COc1cc2c(Oc3ccc4[nH]cc(C)c4c3)ncnc2cc1OCCCN1CCCC1 [Example 179, 6-methoxy-4-(3-methylindol-5-yloxy)-7-(3-(pyrrolidin-1-yl)propoxy)quinazoline], the melting point was 75 to 77 °C. COc1cc2c(Oc3cnc4[nH]ccc4c3)ncnc2cc1OCCCN1CCCC1 [Example 182, 6-methoxy-7-(3-(pyrrolidin-1-yl)propoxy)-4-(1H-pyrrolo[2,3-b]pyridin-5-yloxy)quinazoline] showed a melting point of 184 to 185.5 °C. Work on COc1cc2c(Oc3cccc4[nH]ccc34)ncnc2cc1OCCCN1CCCCC1 [Example 169, 4-(indol-4-yloxy)-6-methoxy-7-(3-piperidinopropoxy)quinazoline] yielded a melting point of 80 to 82 °C.
